Measured values as given in paper PMC5215716, “A Target-Based Whole Cell Screen Approach To Identify Potential Inhibitors of Mycobacterium tuberculosis Signal Peptidase” (ACS Infectious Diseases, 2016).
Converted amounts (≈) assume the structure as drawn.

How the values were obtained:
[1] = tested on: M. tuberculosis strain SPAM13C (LepB-UE); assay: microbe, parasite or virus in culture; type: cell-based, Mycobacterium tuberculosis; conditions: for Change in potency against LepB-UE compared to compound 1: decrease in potency relative to compound 1; for LepB-UE MIC / MIC: M. tuberculosis strain SPAM13C, OD590 after 5 days at 37 °C, average ± SD of at least two experiments, b = single value; for MIC: Mycobacterium tuberculosis, 120 h, read-out: LepB-UE MIC
[2] = tested on: wild-type (wt) M. tuberculosis strain; assay: microbe, parasite or virus in culture; type: cell-based, Mycobacterium tuberculosis; conditions: […], OD590 after 5 days at 37 °C, average ± SD of at least two experiments, b = single value; for MIC: Mycobacterium tuberculosis, 120 h, read-out: WT MIC
LepB = target: T1, LepB (Mycobacterium tuberculosis, UniProt P9WKA1); assay: LepB membrane assay (fluorogenic signal peptide cleavage by cell membrane fraction); type: biochemical; conditions: M. tuberculosis H37Rv cell membrane fraction, 2 μM peptide substrate, 4 h at 37 °C
T1 construct: we used purified membrane fractions to develop an in vitro assay for signal peptide cleavage; host or cells: γ-irradiated whole M. tuberculosis H37Rv; Triton X-114 membrane fraction
T1 sequence (P9WKA1 1-294): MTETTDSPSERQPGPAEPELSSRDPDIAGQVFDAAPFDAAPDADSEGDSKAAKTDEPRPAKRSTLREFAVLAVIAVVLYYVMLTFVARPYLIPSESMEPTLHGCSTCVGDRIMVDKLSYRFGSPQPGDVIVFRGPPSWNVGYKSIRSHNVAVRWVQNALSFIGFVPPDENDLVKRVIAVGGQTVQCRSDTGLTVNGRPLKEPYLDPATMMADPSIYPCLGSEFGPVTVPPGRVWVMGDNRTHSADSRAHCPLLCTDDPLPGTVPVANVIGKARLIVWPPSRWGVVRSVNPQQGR

in vitro = type: cell-based, African green monkey; conditions: African green monkey
Description: (§1) Cytotoxicity against African green monkey adult kidney cell (Vero cells) was determined as previously described using CellTiter-Glo reagent.[44] The concentration causing 50% growth inhibition (IC50) was calculated by fitting the inhibition curves using the Levenberg–Marquardt algorithm.

Vero cells = assay: in vitro; type: cell-based, African green monkey; conditions: relative to compound 16
Description: as §1

Compound | Change in potency against LepB-UE compared to compound 1 [1] | MIC [2] [µM] | IC50 (LepB) [µM] | CC50 (in vitro) [µM] | LepB-UE MIC [1] [µM] | MIC [1] [µM] | Decrease in selectivity compared to 16 (Vero cells) [fold] | WT MIC [2] [µM]
C/C(=N\Nc1nc(C)cc(C)n1)c1ccco1 [Compound 20] | at least 10 fold | > 200 | 74 | > 100 | – | – | – | –
C/C(=N\Nc1nc(C)cc(C)n1)c1cccs1 [Compound 21] | at least 10 fold | > 200 | 120 | > 100 | – | – | – | –
C/C(=N\Nc1nc(C)cc(C)n1)c1ccccc1 [Compound 22] | at least 10 fold | > 200 | > 200 | > 100 | – | – | – | –
C/C(=N\Nc1nc(C)cc(C)n1)c1cccc(O)c1 [Compound 23] | at least 10 fold | 115 (≈ 29.5 µg/mL) | 140 | > 100 | 54 ± 2 | 30 to 90 (≈ 7.69 to 23.1 µg/mL) | – | –
Cc1cc(C)nc(NN=C(c2ccccc2)c2ccccc2)n1 [Compound 27] | little impact on antitubercular activity compared to compound 1 | 17 ± 8 (≈ 5.14 µg/mL) | > 200 | 0.1 | – | 2.2 ± 0.7 (≈ 0.665 µg/mL) | – | –
C/C(=N\Nc1nnc2c(n1)[nH]c1ccc(C)cc12)c1ccccn1 [Compound 28] | activity was comparable to that of 1 | > 200 | 87 | 1.2 | – | 4.8 ± 2.4 (≈ 1.52 µg/mL) | – | –
COc1ccc([N+](=O)[O-])cc1/C=N/NC(=N)c1ccccn1 [Compound 33] | – | > 200 | – | > 100 | – | > 200 | 15 | –
N=C(N/N=C/c1cccc([N+](=O)[O-])c1)c1ccccn1 [Compound 34] | – | > 200 | – | > 100 | – | 106 (≈ 28.5 µg/mL) | 15 | –
COc1ccc(CC(=O)N/N=C(\C)c2ccccn2)cc1OC [Compound 36] | – | 53 ± 2 (≈ 16.6 µg/mL) | > 200 | 12 | – | 26 ± 1 (≈ 8.15 µg/mL) | – | –
C/C(=N\NC(=O)C1CCCN(S(=O)(=O)c2ccccc2)C1)c1ccccn1 (centres unmarked) [Compound 38] | – | 17 ± 5 (≈ 6.57 µg/mL) | 180 | 9.5 | 4.9 ± 0.2 | 3.5 to 15 (≈ 1.35 to 5.8 µg/mL) | – | –
C/C(=N\NC(=O)c1ccoc1C)c1ccccn1 [Compound 39] | – | < 10 | > 200 | 3.3 | 2.5 ± 0.2 | 2 to 2.5 (≈ 0.487 to 0.608 µg/mL) | – | 5.5 ± 1.4
C/C(=N\NC(=O)C1CC1)c1ccccn1 [Compound 40] | – | 42 ± 15 (≈ 8.54 µg/mL) | > 200 | 75 | 15 ± 1 | – | – | –
C/C(=N\NS(=O)(=O)c1ccccc1)c1ccccn1 [Compound 42] | 16 fold | 94 (≈ 25.9 µg/mL) | 34 | > 100 | – | 48 (≈ 13.2 µg/mL) | – | –
Cc1cc(C)nc(-n2nc(C)cc2C)n1 [Compound 43] | – | 115 ± 23 (≈ 23.3 µg/mL) | > 200 | > 100 | – | 48 ± 2 (≈ 9.71 µg/mL) | – | –
Cc1cc(C)nc(-n2nc(C)c(Oc3ccccc3O)c2C)n1 [Compound 44] | – | > 200 | > 200 | > 100 | – | 95 ± 7 (≈ 29.5 µg/mL) | – | –
CC1=NN(c2nc(C)cc(C)n2)C(=O)C1C (centres unmarked) [Compound 46] | – | > 200 | > 200 | > 100 | – | 90 ± 28 (≈ 19.6 µg/mL) | – | –
Cc1cc(C)nc(-n2nc(C)c(Cc3ccccc3C)c2O)n1 [Compound 47] | – | > 200 | > 200 | > 100 | – | 61 ± 7 (≈ 18.8 µg/mL) | – | –
Cc1cc(C)nc(NNC(=O)c2ccccn2)n1 [Compound 57] | activity similar to that of 1 | 25 (≈ 6.08 µg/mL) | 64 | 32 | 3.9 ± 1.3 | 3.5 to 15 (≈ 0.851 to 3.65 µg/mL) | – | 25 ± 4
